PMC3693772, “Protein expression, biochemical pharmacology of signal transduction, and relation to intraocular pressure modulation by bradykinin B2 receptors in ciliary muscle” (Molecular Vision, 2013)

What was measured:
[1] = test system: h-CM cells; format: cell-based, human; settings: 1 h at 37 °C; enzyme immunoassay; mean ± SEM, 3 to 6 experiments; read-out: PGE2 production in h-CM cells (EC50)
Description: Measurement of prostaglandins in human ciliary muscle and Chinese hamster ovary cells expressing B2 receptors
This involved stimulating h-CM cells and CHO-B2 cells with various concentrations of test peptides and measuring the release of various PGs in the extracellular medium. The concentration-dependent effects of these peptides on total PGs, and specifically PGE2, PGF2α, and PGD2 release, were studied. Cells were grown as a monolayer in a 24-well plate (precoated with fibronectin) to confluence and subsequently serum-starved overnight before the experiment. On the day of the experiment, just before the drug was added, the wells were aspirated completely, and 990 µl basal medium and 10 µl 100× series of concentrations of the different peptide agonists were added to achieve the desired final concentrations of each compound (e.g., 0.1 nM to 10 µM). […] At the end of the incubation period, the cellular supernatants were collected and stored at −80 °C or used immediately to determine the PG content. Cell supernatants were tested for total PG levels and sub-species of PGs (PGE2, PGF2α, and PGD2) using specific competitive enzyme immunoassays (Cayman Chemical Co., Ann Arbor, MI) as directed in the manufacturer’s recommended protocols using the supplied standards and reagents. The limits of detection for various PGs were as follows: total PGs=29 pg/ml; PGE2=15 pg/ml; PGF2α=9 pg/ml; PGD2=200 pg/ml.

[2] = test system: pro-MMP-3, h-CM cells; test: pro-MMP-3 release from h-CM cells; format: cell-based, human; settings: BK 10 nM to 1 µM, 24 h at 37 °C; n=5
Description: Measurement of extracellular signal-regulated kinase-1/2 phosphorylation and pro-matrix metalloproteinase production
The release of pro-MMP-1/2/3 in the extracellular medium of h-CM cells exposed to kinin’s, for 24 h at 37 °C [29, 30] was studied next. Thus, h-CM cells isolated from multiple human donor eyes were cultured as described above and then serum-starved for 24 h prior to the addition of any test compound. Cells were incubated with the vehicle or test compound for 24 hours at 37 °C after which the medium was collected and concentrated ten-fold using Centricon concentrators (Millipore Corp., Bellireca, MA). Equal volumes of this concentrate were loaded on 10% SDS-polyacrylamide gels (SDS-PAGE) and the proteins separated and transferred to nitrocellulose membranes. The membranes were then blocked with 5% non-fat dry milk (Bio-Rad Laboratories, Hercules, CA) followed by incubation with antibodies to pro-MMP-1, pro-MMP-2, or pro-MMP-3 for 12 hours at 4 °C with gentle shaking. After washing, these membranes were incubated with appropriate secondary antibodies (HRP-conjugated; dilution 1:3000) for 1 hour at 20 °C. […] For chemiluminescent detection, the membranes were treated with enhanced chemiluminescent reagent (Amersham Pharmacia, Piscataway, NJ) and the signal was quantified using a Bio-Rad Versadoc imaging system (Bio-Rad Laboratories, Hercules, CA).

## H-RPPGFSPFR-OH [BK]
[1]
  EC50: 8.9 ± 0.2 nM
[2]
  pro-MMP-3 release vs basal level: 1.41±0.09 fold
